In patent publication US12441736B2, “KIF18A inhibitors” (AMGEN INC., priority 2018, dated 2025):

target: T1, Recombinant human KIF18A (1-467 His-tagged) protein (Homo sapiens, UniProt Q8NI77); test: KIF18A Enzyme Assay: microtubule-stimulated ATPase activity (ADP-Glo); type: biochemical; details: 30 nM KIF18A, 30 μg/mL pig microtubules, 75 μM ATP, ADP-Glo luminescence
T1 construct: Recombinant human KIF18A (1-467 His-tagged) protein; His; made in house
Method in brief: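 IC50 comes from a four-parameter logistic fit over a 22-point, 2-fold series, with ADP quantified by ADP-Glo luminescence. Reactions ran at room temperature: compound plus 30 nM KIF18A(1-467)-His for 15 min, then 75 μM ATP (Km) for 15 min. The buffer held pig microtubules at 30 μg/mL and 1 μM taxol.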

T1 sequence (Q8NI77 1-467): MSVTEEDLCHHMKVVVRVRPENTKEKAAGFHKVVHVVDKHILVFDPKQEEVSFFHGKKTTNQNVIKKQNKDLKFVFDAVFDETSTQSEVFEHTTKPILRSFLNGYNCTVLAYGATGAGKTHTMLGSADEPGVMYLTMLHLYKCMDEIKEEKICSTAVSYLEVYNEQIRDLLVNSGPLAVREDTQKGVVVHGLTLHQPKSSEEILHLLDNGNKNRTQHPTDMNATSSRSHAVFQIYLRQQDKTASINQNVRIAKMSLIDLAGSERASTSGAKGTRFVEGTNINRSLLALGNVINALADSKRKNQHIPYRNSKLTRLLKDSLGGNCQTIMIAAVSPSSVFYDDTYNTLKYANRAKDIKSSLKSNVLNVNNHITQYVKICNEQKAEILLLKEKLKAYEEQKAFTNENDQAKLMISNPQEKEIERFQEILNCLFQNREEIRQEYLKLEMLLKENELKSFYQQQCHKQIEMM
T1 sequence (P02550 whole entry partner): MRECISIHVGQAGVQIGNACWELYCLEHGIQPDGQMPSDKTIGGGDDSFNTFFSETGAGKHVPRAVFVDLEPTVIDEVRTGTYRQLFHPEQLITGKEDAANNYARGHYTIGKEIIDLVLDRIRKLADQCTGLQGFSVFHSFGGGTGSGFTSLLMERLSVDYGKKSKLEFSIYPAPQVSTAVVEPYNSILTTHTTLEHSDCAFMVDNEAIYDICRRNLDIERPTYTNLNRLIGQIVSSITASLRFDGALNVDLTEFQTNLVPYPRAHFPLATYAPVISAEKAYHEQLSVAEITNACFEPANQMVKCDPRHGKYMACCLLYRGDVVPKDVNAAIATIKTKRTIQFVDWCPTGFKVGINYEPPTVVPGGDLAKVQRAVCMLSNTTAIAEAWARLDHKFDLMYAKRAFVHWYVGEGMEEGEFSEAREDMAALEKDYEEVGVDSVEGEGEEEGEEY
T1 sequence (P02554 whole entry partner): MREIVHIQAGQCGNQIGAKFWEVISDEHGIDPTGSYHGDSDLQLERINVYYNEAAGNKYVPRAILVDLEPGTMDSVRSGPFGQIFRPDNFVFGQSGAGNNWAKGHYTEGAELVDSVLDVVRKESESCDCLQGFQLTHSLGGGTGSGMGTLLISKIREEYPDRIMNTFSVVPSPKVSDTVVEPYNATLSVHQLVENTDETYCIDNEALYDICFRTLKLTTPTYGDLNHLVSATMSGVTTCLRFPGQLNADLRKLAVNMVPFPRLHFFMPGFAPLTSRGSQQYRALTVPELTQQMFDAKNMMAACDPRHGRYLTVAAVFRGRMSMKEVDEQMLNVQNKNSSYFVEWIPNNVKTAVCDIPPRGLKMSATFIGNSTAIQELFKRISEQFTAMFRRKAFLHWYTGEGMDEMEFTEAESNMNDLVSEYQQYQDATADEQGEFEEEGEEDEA

| SMILES | IC50 |
| --- | --- |
| C[C@@H]1CN(c2cccc(NC(=O)c3ccc(NC(C)(C)CO)nc3N3CCC4(CC3)CC4)n2)CCO1 [Example 137, 2-(6-azaspiro[2.5]oct-6-yl)-6-((2-hydroxy-1,1-dimethylethyl)amino)-N-(6-((2R)-2-methyl-4-morpholinyl)-2-pyridinyl)-3-pyridinecarboxamide] | 66.9 nM |
| CC(C)(C)NS(=O)(=O)c1cccc(NC(=O)c2ccc([C@@](C)(O)C(F)(F)F)nc2N2CCC3(CC2)CC3)n1 (single isomer, unassigned) [Example 153] | 53.4 nM |
| CC(C)(C)NS(=O)(=O)c1cccc(NC(=O)c2ncc(NC3(CO)CC3)nc2N2CCC3(CC2)CC3)n1 [Example 109, 3-(6-azaspiro[2.5]oct-6-yl)-5-((1-(hydroxymethyl)cyclopropyl)amino)-N-(6-((2-methyl-2-propanyl)sulfamoyl)-2-pyridinyl)-2-pyrazinecarboxamide] | 79.3 nM |
| C[C@@H]1CN(c2cccc(NC(=O)c3ccc(N4C(=O)OCC4(C)C)nc3N3CCC4(CC3)CC4)n2)CCO1 [Example 165, 2-(6-azaspiro[2.5]octan-6-yl)-6-(4,4-dimethyl-2-oxo-1,3-oxazolidin-3-yl)-N-(6-((2R)-2-methyl-4-morpholinyl)-2-pyridinyl)-3-pyridinecarboxamide] | 663 nM |
| C[C@](O)(c1ccc(C(=O)Nc2cccc(N3CCOCC3)n2)c(N2CCC3(CC2)CC3)n1)C(F)(F)F [Example 142, 2-(6-azaspiro[2.5]oct-6-yl)-N-(6-(4-morpholinyl)-2-pyridinyl)-6-((2S)-1,1,1-trifluoro-2-hydroxy-2-propanyl)-3-pyridinecarboxamide] | 57.5 nM |
| O=C(Nc1cccc(S(=O)(=O)N2CCCCC2)n1)c1ncc(NC2(CO)CC2)nc1N1CCC2(CC1)CC2 [Example 101, 3-(6-azaspiro[2.5]oct-6-yl)-5-((1-(hydroxymethyl)cyclopropyl)amino)-N-(6-(1-piperidinylsulfonyl)-2-pyridinyl)-2-pyrazinecarboxamide] | 106 nM |
| C[C@@H]1CN(c2cccc(NC(=O)c3ccc([C@](C)(O)CO)nc3N3CCC4(CC3)CC4)n2)CCO1 [Example 167, 2-(6-azaspiro[2.5]octan-6-yl)-6-((2S)-1,2-dihydroxy-2-propanyl)-N-(6-((2R)-2-methyl-4-morpholinyl)-2-pyridinyl)-3-pyridinecarboxamide] | 82.2 nM |
| CC(CO)(CO)Nc1ccc(C(=O)Nc2cccc(Br)n2)c(N2CCC3(CC2)CC3)n1 [Example 164, 2-(6-azaspiro[2.5]octan-6-yl)-N-(6-bromo-2-pyridinyl)-6-((1,3-dihydroxy-2-methyl-2-propanyl)amino)-3-pyridinecarboxamide] | 2750 nM |
| CC(C)(C)NS(=O)(=O)c1cccc(NC(=O)c2ccc(C(O)(CO)C(F)(F)F)nc2N2CCC3(CC2)CC3)n1 (racemic) [Example 172, N-(6-(N-(tert-butyl)sulfamoyl)pyridin-2-yl)-2-(6-azaspiro[2.5]octan-6-yl)-6-(1,1,1-trifluoro-2,3-dihydroxypropan-2-yl)nicotinamide] | 120 nM |
| CC(O)(c1ccc(C(=O)Nc2cccc(N3CCOCC3)n2)c(N2CCC3(CC2)CC3)n1)C(F)(F)F (stereo not shown) [Example 140, N-(6-morpholinopyridin-2-yl)-2-(6-azaspiro[2.5]octan-6-yl)-6-(1,1,1-trifluoro-2-hydroxypropan-2-yl)nicotinamide] | 71.2 nM |
| CC1(C)CC(=O)N(c2cccc(NC(=O)c3ccc(NC(C)(C)CO)nc3N3CCC4(CC3)CC4)n2)C1 [Example 135, 2-(6-azaspiro[2.5]oct-6-yl)-N-(6-(4,4-dimethyl-2-oxo-1-pyrrolidinyl)-2-pyridinyl)-6-((2-hydroxy-1,1-dimethylethyl)amino)-3-pyridinecarboxamide] | 110 nM |
| CC(C)(C)NS(=O)(=O)c1cccc(NC(=O)c2ccc(NC(C)(CO)CO)nc2N2CCC3(CC2)CC3)n1 [Example 174, 2-(6-azaspiro[2.5]octan-6-yl)-6-((1,3-dihydroxy-2-methyl-2-propanyl)amino)-N-(6-((2-methyl-2-propanyl)sulfamoyl)-2-pyridinyl)-3-pyridinecarboxamide] | 62.2 nM |
| CC(C)(CO)Nc1ccc(C(=O)Nc2cccc(N3CCC(F)(F)C3)n2)c(N2CCC3(CC2)CC3)n1 [Example 129, 2-(6-azaspiro[2.5]oct-6-yl)-N-(6-(3,3-difluoro-l-pyrrolidinyl)-2-pyridinyl)-6-((2-hydroxy-1,1-dimethylethyl)amino)-3-pyridinecarboxamide] | 83.4 nM |
| C[C@@H]1CN(c2cccc(NC(=O)c3ncc(NC(C)(C)CO)nc3N3CCC4(CC3)CC4)n2)CCO1 [Example 104, (R)-5-((1-hydroxy-2-methylpropan-2-yl)amino)-N-(6-(2-methylmorpholino)pyridin-2-yl)-3-(6-azaspiro[2.5]octan-6-yl)pyrazine-2-carboxamide] | 83.4 nM |

The remaining lines, values ahead:

| IC50 | SMILES |
| --- | --- |
| 693 nM | CC(C)(CO)Nc1ccc(C(=O)Nc2cccc(N3CCN(C4CC4)CC3)n2)c(N2CCC3(CC2)CC3)n1 [Example 190, 2-(6-azaspiro[2.5]octan-6-yl)-N-(6-(4-cyclopropyl-1-piperazinyl)-2-pyridinyl)-6-((1-hydroxy-2-methyl-2-propanyl)amino)-3-pyridinecarboxamide] |
| 948 nM | CN(C(=O)OC(C)(C)C)C1CCCN(c2cccc(NC(=O)c3ccc(NC(C)(C)CO)nc3N3CCC4(CC3)CC4)n2)C1 (stereo not shown) [Example 232, tert-butyl (1-(6-(6-((1-hydroxy-2-methylpropan-2-yl)amino)-2-(6-azaspiro[2.5]octan-6-yl)nicotinamido)pyridin-2-yl)piperidin-3-yl)(methyl)carbamate] |
| 114 nM | CC(C)(CO)Nc1ccc(C(=O)Nc2cccc(N3CCCC(O)(CO)C3)n2)c(N2CCC3(CC2)CC3)n1 (stereo not shown) [Example 230, 6-((1-hydroxy-2-methylpropan-2-yl)amino)-N-(6-(3-hydroxy-3-(hydroxymethyl)piperidin-1-yl)pyridin-2-yl)-2-(6-azaspiro[2.5]octan-6-yl)nicotinamide] |
| 392 nM | CC(C)(CO)Nc1ccc(C(=O)Nc2cccc(NCCO)n2)c(N2CCC3(CC2)CC3)n1 [Example 226, 2-(6-azaspiro[2.5]octan-6-yl)-N-(6-((2-hydroxyethyl)amino)-2-pyridinyl)-6-((1-hydroxy-2-methyl-2-propanyl)amino)-3-pyridinecarboxamide] |
| 1090 nM | CCN1CCN(c2cccc(NC(=O)c3ccc(NC(C)(C)CO)nc3N3CCC4(CC3)CC4)n2)CC1 [Example 192, 2-(6-azaspiro[2.5]octan-6-yl)-N-(6-(4-ethyl-1-piperazinyl)-2-pyridinyl)-6-((1-hydroxy-2-methyl-2-propanyl)amino)-3-pyridinecarboxamide] |
| 239 nM | COC(=O)C(F)(C(=O)OC)c1ccc(C(=O)Nc2cccc(S(=O)(=O)NC(C)(C)C)n2)c(N2CCC3(CC2)CC3)n1 [Example 193, dimethyl (6-(6-azaspiro[2.5]octan-6-yl)-5-((6-((2-methyl-2-propanyl)sulfamoyl)-2-pyridinyl)carbamoyl)-2-pyridinyl)(fluoro)propanedioate] |
| 357 nM | CC(C)(CO)Nc1ccc(C(=O)Nc2cccc(N3CCC(O)C3(C)C)n2)c(N2CCC3(CC2)CC3)n1 (stereo not shown) [Example 221, N-(6-(3-hydroxy-2,2-dimethylpyrrolidin-1-yl)pyridin-2-yl)-6-((1-hydroxy-2-methylpropan-2-yl)amino)-2-(6-azaspiro[2.5]octan-6-yl)nicotinamide] |
| 860 nM | O=C(Nc1cccnc1N1CCC2(CC1)CC2)c1cccc(N2CCOCC2)n1 [Example 245, N-(2-(6-azaspiro[2.5]oct-6-yl)-3-pyridinyl)-6-(4-morpholinyl)-2-pyridinecarboxamide] |
| 283 nM | CC(C)(C)NS(=O)(=O)c1cccc(NC(=O)c2ccc(C(F)(CO)CO)nc2N2CCC3(CC2)CC3)n1 [Example 194, 2-(6-azaspiro[2.5]octan-6-yl)-6-(2-fluoro-1,3-dihydroxy-2-propanyl)-N-(6-((2-methyl-2-propanyl)sulfamoyl)-2-pyridinyl)-3-pyridinecarboxamide] |
| 51.2 nM | CC(c1ccc(C(=O)Nc2cccc(N3CCO[C@H](C)C3)n2)c(N2CCC3(CC2)CC3)n1)S(C)(=O)=O (stereo partly drawn) [Example 244, N-(6-((R)-2-methylmorpholino)pyridin-2-yl)-6-(1-(methylsulfonyl)ethyl)-2-(6-azaspiro[2.5]octan-6-yl)nicotinamide] |
| 69.9 nM | O=C(Nc1cccc(N2CCOCC2)n1)c1ccc(C(O)(CO)C(F)(F)F)nc1N1CCC2(CC1)CC2 (stereo not shown) [Example 181, N-(6-morpholinopyridin-2-yl)-2-(6-azaspiro[2.5]octan-6-yl)-6-(1,1,1-trifluoro-2,3-dihydroxypropan-2-yl)nicotinamide] |
| 98 nM | C[C@@H]1COCCN1c1cccc(NC(=O)c2ccc(NC(C)(C)CO)nc2N2CCC3(CC2)CC3)n1 [Example 179, 2-(6-azaspiro[2.5]octan-6-yl)-6-((1-hydroxy-2-methyl-2-propanyl)amino)-N-(6-((3R)-3-methyl-4-morpholinyl)-2-pyridinyl)-3-pyridinecarboxamide] |
| 205 nM | C[C@H]1COCCN1c1cccc(NC(=O)c2ccc(NC(C)(C)CO)nc2N2CCC3(CC2)CC3)n1 [Example 183, 2-(6-azaspiro[2.5]octan-6-yl)-6-((1-hydroxy-2-methyl-2-propanyl)amino)-N-(6-((3S)-3-methyl-4-morpholinyl)-2-pyridinyl)-3-pyridinecarboxamide] |
| 540 nM | Cc1cc(NC(=O)c2ccc(N3CC(O)CC3(C)C)nc2N2CCC3(CC2)CC3)nc(N2CCOCC2)c1 (stereo not drawn) [Example 212, 6-(4-hydroxy-2,2-dimethylpyrrolidin-l-yl)-N-(4-methyl-6-morpholinopyridin-2-yl)-2-(6-azaspiro[2.5]octan-6-yl)nicotinamide] |
